Measured values as given in patent US20070135490A1, “Phenetanolamine derivatives” (priority 2003, published 2007).

target: T1, human beta-2 receptor (Homo sapiens, UniProt P07550); assay: Chinese hamster ovary cells co-expressing the human receptor with a reporter gene, cAMP measurement in whole cells or membranes (Method 2); format: cell-based; conditions: CHO cells or membranes
T1 construct: expressed in transfected cells; host or cells: Chinese hamster ovary cells (whole cells or membranes derived from them)
Protocol: Potency of compounds of the invention at the human beta 2, 1 and 3 receptors was also determined using Chinese hamster ovary cells co-expressing the human receptor with a reporter gene. Studies were performed using either whole cells or membranes derived from those cells.
The three beta-receptors are coupled via the Gs G-protein to cause a simulation of adenylate cyclase resulting in increased levels of cAMP in the cell. For direct cAMP measurements either membranes or cells have been used with either the HitHunter enzyme fragment complementation kit (DiscoveRx) or the FP^2 fluorescence polarisation kit (Perkin Elmer) to quantify the levels of cAMP present. These assays provide a measure of agonist potency and intrinsic activity of the compounds at the various receptors. […]
In this assay the potency of compounds at the human beta-2 receptor is expressed as a pEC50 value. Compounds of examples 12-26, 28-50 and 52-64 had pEC50 values greather than 6. […] No result is available for the compound of example 51.

Compound	pEC50 at the human beta-2 receptor
Formic acid compound with 4-((1R)-1-hydroxy-2-{[2-(3-{[3-(2-hydroxyphenyl)propoxy]methyl}phenyl)ethyl]amino}ethyl)-2-(hydroxymethyl)phenol (1:1) [Example 27]	less than 6

same assay, conditions: CHO cells or membranes, read-out: pEC50 at the human beta-2 receptor (converted)

Compound	EC50 [nM]
O=S(=O)(c1cccc(CCCCOCc2cccc(CCNC[C@H](O)c3ccc(O)c(CO)c3)c2)c1)C1CCCC1 [Example 61, Formic acid compound with 4-[(1R)-2-({2-[3-({4-[3-(cyclopentylsulfonyl)phenyl]butoxy}methyl)phenyl]ethyl}amino)-1-hydroxyethyl]-2-(hydroxymethyl)phenol (1:1)]	< 1000
O=S(=O)(c1ccc(CCCOCc2cccc(CCNC[C@H](O)c3ccc(O)c(CO)c3)c2)cc1)C1CCCC1 [Example 30, Formic acid compound with 4-[(1R)-2-({2-[3-({3-[4-(cyclopentylsulfonyl)phenyl]propoxy}methyl)phenyl]ethyl}amino)-1-hydroxyethyl]-2-(hydroxymethyl)phenol (1:1)]	< 1000
CS(=O)(=O)c1ccc(COCc2cccc(CCNC[C@H](O)c3ccc(O)c(CO)c3)c2)cc1 [Example 24, Formic acid compound with 2-(hydroxymethyl)-4-[(1R)-1-hydroxy-2-({2-[3-({[4-(methylsulfonyl)benzyl]oxy}methyl)phenyl]ethyl}amino)ethyl]phenol (1:1)]	< 1000
[O-][S+](c1cccc(CCCCOCc2cccc(CCNC[C@H](O)c3ccc(O)c(CO)c3)c2)c1)C1CCCC1 (stereo partly drawn) [Example 36, Formic acid compound with 4-[(1R)-2-({2-[3-({4-[3-(cyclopentylsulfinyl)phenyl]butoxy}methyl)phenyl]ethyl}amino)-1-hydroxyethyl]-2-(hydroxymethyl)phenol (1:1)]	< 1000
O=S(=O)(c1cccc(CCCOCc2cccc(CCNC[C@H](O)c3ccc(O)c(CO)c3)c2)c1)C1CCCC1 [Example 31, Formic acid compound with 4-[(1R)-2-({2-[3-({3-[3-(cyclopentylsulfonyl)phenyl]propoxy}methyl)phenyl]ethyl}amino)-1-hydroxyethyl]-2-(hydroxymethyl)phenol (1:1)]	< 1000
O=S(=O)(c1ccc(CCCCOCc2cccc(CCNC[C@H](O)c3ccc(O)c(CO)c3)c2)cc1)C1CCCC1 [Example 29, Formic acid compound with 4-[(1R)-2-({2-[3-({4-[4-(cyclopentylsulfonyl)phenyl]butoxy}methyl)phenyl]ethyl}amino)-1-hydroxyethyl]-2-(hydroxymethyl)phenol (1:1)]	< 1000
OCc1cc([C@@H](O)CNCCc2cccc(COCCCc3cccc(O)c3)c2)ccc1O [Example 28, Formic acid compound with 4-((1R)-1-hydroxy-2-{[2-(3-{[3-(3-hydroxyphenyl)propoxy]methyl}phenyl)ethyl]amino}ethyl)-2-(hydroxymethyl)phenol (1:1)]	< 1000
N#Cc1ccc(CCCCOCc2cccc(CCNC[C@H](O)c3ccc(O)c(CO)c3)c2)cc1 [Example 21, Formic acid compound with 4-[4-({3-[2-({(2R)-2-hydroxy-2-[4-hydroxy-3-(hydroxymethyl)phenyl]ethyl}amino)ethyl]benzyl}oxy)butyl]benzonitrile (1:1)]	< 1000
N#Cc1ccc(CCCOCc2cccc(CCNC[C@H](O)c3ccc(O)c(CO)c3)c2)cc1 [Example 20, Formic acid compound with 4-[3-({3-[2-({(2R)-2-hydroxy-2-[4-hydroxy-3-(hydroxymethyl)phenyl]ethyl}amino)ethyl]benzyl}oxy)propyl]benzonitrile (1:1)]	< 1000

The next lines start with the values.

EC50 [nM]	Compound
< 1000	N#Cc1ccc(COCc2cccc(CCNC[C@H](O)c3ccc(O)c(CO)c3)c2)cc1 [Example 43, Formic acid compound with 4-[({3-[2-({(2R)-2-hydroxy-2-[4-hydroxy-3-(hydroxymethyl)phenyl]ethyl}amino)ethyl]benzyl}oxy)methyl]benzonitrile (1:1)]
< 1000	NS(=O)(=O)c1cccc(CCCOCc2cccc(CCNC[C@H](O)c3ccc(O)c(CO)c3)c2)c1 [Example 56, Formic acid compound with 3-[3-({3-[2-({(2R)-2-hydroxy-2-[4-hydroxy-3-(hydroxymethyl)phenyl]ethyl}amino)ethyl]benzyl}oxy)propyl]benzenesulfonamide (1:1)]
< 1000	Cc1cc(C)cc(COCc2cccc(CCNC[C@H](O)c3ccc(O)c(CO)c3)c2)c1 [Example 46, Formic acid compound with 4-((1R)-2-{[2-(3-{[(3,5-dimethylbenzyl)oxy]methyl}phenyl)ethyl]amino}-1-hydroxyethyl)-2-(hydroxymethyl)phenol (1:1)]
< 1000	O=S(=O)(c1cccc(COCc2cccc(CCNC[C@H](O)c3ccc(O)c(CO)c3)c2)c1)C1CCCC1 [Example 35, Formic acid compound with 4-[(1R)-2-({2-[3-({[3-(cyclopentylsulfonyl)benzyl]oxy}methyl)phenyl]ethyl}amino)-1-hydroxyethyl]-2-(hydroxymethyl)phenol (1:1)]
< 1000	OCc1cc([C@@H](O)CNCCc2cccc(COCCCc3c(Cl)cccc3Cl)c2)ccc1O [Example 63, Formic acid compound with 4-((1R)-2-{[2-(3-{[3-(2,6-dichlorophenyl)propoxy]methyl}phenyl)ethyl]amino}-1-hydroxyethyl)-2-(hydroxymethyl)phenol (1:1)]
< 1000	OCc1cc([C@@H](O)CNCCc2cccc(COCCc3cccc(F)c3)c2)ccc1O [Example 39, Formic acid compound with 4-((1R)-2-{[2-(3-{[2-(3-fluorophenyl)ethoxy]methyl}phenyl)ethyl]amino}-1-hydroxyethyl)-2-(hydroxymethyl)phenol (1:1)]
< 1000	C[C@H](OCc1cccc(CCNC[C@H](O)c2ccc(O)c(CO)c2)c1)c1ccccc1 [Example 45, Formic acid compound with 2-(hydroxymethyl)-4-[(1R)-1-hydroxy-2-({2-[3-({[(1S)-1-phenylethyl]oxy}methyl)phenyl]ethyl}amino)ethyl]phenol (1:1)]
< 1000	NS(=O)(=O)c1cccc(COCc2cccc(CCNC[C@H](O)c3ccc(O)c(CO)c3)c2)c1 [Example 64, 3-[({3-[2-({(2R)-2-Hydroxy-2-[4-hydroxy-3-(hydroxymethyl)phenyl]ethyl}amino)ethyl]benzyl}oxy)methyl]benzenesulfonamide acetate]
< 1000	OCc1cc([C@@H](O)CNCCc2cccc(COCCOCc3cccc(O)c3)c2)ccc1O [Example 32, Formic acid compound with 4-[(1R)-1-hydroxy-2-({2-[3-({2-[(3-hydroxybenzyl)oxy]ethoxy}methyl)phenyl]ethyl}amino)ethyl]-2-(hydroxymethyl)phenol (1:1)]
< 1000	NC(=O)c1cccc(COCCOCc2cccc(CCNC[C@H](O)c3ccc(O)c(CO)c3)c2)c1 [Example 52, Formic acid compound with 3-{[2-({3-[2-({(2R)-2-hydroxy-2-[4-hydroxy-3-(hydroxymethyl)phenyl]ethyl}amino)ethyl]benzyl}oxy)ethoxy]methyl}benzamide (1:1)]
< 1000	NS(=O)(=O)c1cccc(CCOCc2cccc(CCNC[C@H](O)c3ccc(O)c(CO)c3)c2)c1 [Example 55, Formic acid compound with 3-[2-({3-[2-({(2R)-2-hydroxy-2-[4-hydroxy-3-(hydroxymethyl)phenyl]ethyl}amino)ethyl]benzyl}oxy)ethyl]benzenesulfonamide (1:1)]
< 1000	CC(OCCOCc1cccc(CCNC[C@H](O)c2ccc(O)c(CO)c2)c1)c1ccccc1 (stereo partly drawn) [Example 59, Formic acid compound with 2-(hydroxymethyl)-4-((1R)-1-hydroxy-2-{[2-(3-{[2-(1-phenylethoxy)ethoxy]methyl}phenyl)ethyl]amino}ethyl)phenol (1:1)]
< 1000	O=S(=O)(c1cccc(COCCOCc2cccc(CCNC[C@H](O)c3ccc(O)c(CO)c3)c2)c1)C1CCCC1 [Example 33, Formic acid compound with 4-{(1R)-2-[(2-{3-[(2-{[3-(cyclopentylsulfonyl)benzyl]oxy}ethoxy)methyl]phenyl}ethyl)amino]-1-hydroxyethyl}-2-(hydroxymethyl)phenol (1:1)]
< 1000	NC(=O)c1ccc(COCc2cccc(CCNC[C@H](O)c3ccc(O)c(CO)c3)c2)cc1 [Example 54, Formic acid compound with 4-[({3-[2-({(2R)-2-hydroxy-2-[4-hydroxy-3-(hydroxymethyl)phenyl]ethyl}amino)ethyl]benzyl}oxy)methyl]benzamide (1:1)]
< 1000	OCc1cc([C@@H](O)CNCCc2cccc(COCc3cccc(F)c3)c2)ccc1O [Example 49, Formic acid compound with 4-((1R)-2-{[2-(3-{[(3-fluorobenzyl)oxy]methyl}phenyl)ethyl]amino}-1-hydroxyethyl)-2-(hydroxymethyl)phenol (1:1)]
